This is an account of results in US20030124151A1, “Pamidronate solution” (Mayne Pharma Pty Ltd., priority 2000, published 2003).

For data set [1] the following is noted: cited from earlier work.
Data set [2] is described as follows: pH of one percent solution in distilled water. In kind it is physicochemical.

For the compound `NCCC(O)(P(=O)(O)O)P(=O)(O)O` [Pamidronic acid, (3 amino-1-hydroxypropylidene) bisphosphonic acid], in data set [1], the Solubility in water result is “practically insoluble”.

Consider `NCCC(O)(P(=O)(O)O)P(=O)(O)O` [pamidronate disodium], for which the pH of solution result in data set [2] is recorded as “approximately 8.3”.
